Values of other authors in patent publication US20180206518A1, “METHOD OF MAKING CANNABIS OIL H[…] E[…] RELATED CANNABINOID COMPOSITIONS” (priority 2016, published 2018).

Conditions: edible cannabis products, depending on liver function

SMILES: CCCCCc1cc(O)c2c(c1)OC(C)(C)[C@@H]1CCC(C)=CC21 (stereo partly shown) [THC, Δ9-tetrahydrocannabinol]
- THC able to be metabolized: 2-6%
